The test concerns the target T1, MC4R (Homo sapiens, UniProt P32245).
T1 construct: expressed in transfected cells; host or cells: HEK (Human Embryonic Kidney) permanent expression cell line HEK MC4R-Luc, co-expressing CRE-luciferase
Kind of test: MCR agonistic activity (luciferase assay / cAMP accumulation assay) on MC4R. The test is classed as cell-based. As to conditions: HEK cell lines expressing MC4R, not said which. The protocol:
Physiological activity of the compounds of the present invention was assessed by measuring agonistic activity as well as binding activity for melanocortin receptors (MCR) according to methods A and B explained as follows.
As one of the methods to measure MCR agonistic activity of the compound according to the present invention, the expression level of a marker gene (for example, luciferase) which increases proportionally according to the increase of cAMP content in the cell, was measured.
First, permanent expression HEK (Human Embryonic Kidney) cell lines (HEK MC1R-Luc, MC3R-Luc, MC4R-Luc or MC5R-Luc) expressing the MCR gene of each subtype together with luciferase gene (CRE-LUC) under the control of CRE (cAMP Response Element) were constructed. The above cell lines were incubated in an incubator with 6% CO2 atmosphere at 37° C. using selection medium, DMEM(Dulbecco's Modified Eagles Medium) containing 10% heat-inactivated fetal bovine serum (Gibco/BRL), 100 unit/ml, penicillin (Gibco/BRL), 100 unit/ml streptomycin (Gibco/BRL), and 200 μg/ml geneticin (G418) (Gibco/BRL). When the cell covered 70% of total surface of the culture dish with 100 mm diameter, the culture dish was rinsed one time with 10 ml Phosphate Buffered Saline(PBS) free of Ca^++ and Mg^++, and then 3 ml PBS solution containing 0.05% trypsin and 0.53 mM EDTA was added thereto. After the trypsin/EDTA solution was removed, the cell lines were incubated in an thermostatic incubator for 1 minute at 37° C., and resuspended in 10 ml selection medium and centrifuged for 5 minutes at 1500 rpm. The supernatant was discarded and the settled cells were resuspended in 5 ml selection medium free of Phenol Red. The resulting cell-suspension was plated onto each well of 96-well culture plates for Luminometer(Costar) with a concentration of 5×10^4 cell in 100 μl culture medium for each well and incubated in the incubator with 6% CO2 atmosphere at 37° C. for 18 hours. With MCR agonists (Example compounds) diluted stepwise using the above culture medium, the cells were treated under the condition of the final DMSO concentration not exceeding 1%, and incubated for 5 hours in the atmosphere of 6% CO2 at 37° C. Then, 50 μl Bright-Glo (Promega) was added to each well. After allowing the treated cells to be at room temperature for 15 minutes, luminescence was measured for each well by using luminometer (Victor). The level of luminescence induced by the stepwise-diluted agonist was converted to relative % value to those by the treatment of 10 nM NDP-MSH. The EC50 indicates the concentration of each agonist for inducing 50% of maximal luminescence by each agonist and this value was measured by a statistical software (Prizm).
B. cAMP Accumulation Assay
As another method to measure MCR agonistic activity of the compound according to the present invention, an increase of cAMP amount in the cell was measured.
First, permanent expression HEK (Human Embryonic Kidney) cell lines (HEK MC1R-Luc, MC3R-Luc, MC4R-Luc or MCSR-Luc) expressing the MCR gene of each subtype were plated onto each well of 24-well culture plates for Luminometer(Costar) with a concentration of 2×10^5 cell in 1 ml culture medium for each well, and then incubated in an incubator with 6% CO2 atmosphere at 37° C. for 24 hours. The medium was removed from each well followed by rinsing with 0.5 ml cold DMEM one time. With MCR agonists (Example compounds) diluted stepwise using 200 μl DMEM including 500 μM IBMX (isobutylmethylxanthine), the cells were treated under the condition of the final DMSO concentration not exceeding 1%, and incubated for 30 minutes in the atmosphere of 6% CO2 at 37° C. Then, the cAMP amount in each cell was measured using Amersham cAMP assay Kit (TRK432).
More specifically, 14.4 μl of 6M PCA (60%) was added to each well, and allowed to be in ice for 10 minutes, and 200 μl sample was taken from each well and transferred to microcentrifuge tube. […]
In general terms: cAMP levels reflect the balance of adenylyl cyclase and phosphodiesterase activity.

The mark [1] stands for this setting: method A (CRE-luciferase) or B (cAMP accumulation), read-out: EC50 value, agonistic activity to MC4R (range per group of Examples).
Setting [2] is: specific activities of representative compounds, method A or B, read-out: EC50.

Read-outs that look alike come from different tables or passages of the source.

T1 sequence (P32245 whole entry, species assumed): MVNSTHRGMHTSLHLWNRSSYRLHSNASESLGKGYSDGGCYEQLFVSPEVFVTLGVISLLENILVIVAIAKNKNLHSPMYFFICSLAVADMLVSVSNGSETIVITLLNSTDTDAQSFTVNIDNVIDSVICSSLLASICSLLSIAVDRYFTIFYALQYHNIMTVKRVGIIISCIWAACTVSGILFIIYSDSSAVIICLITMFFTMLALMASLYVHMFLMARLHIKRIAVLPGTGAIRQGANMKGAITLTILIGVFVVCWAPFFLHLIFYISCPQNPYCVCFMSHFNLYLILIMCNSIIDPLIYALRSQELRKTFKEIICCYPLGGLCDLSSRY

For the compound `CN1CCN(C(=O)[C@@H]2C[C@H](N(C(=O)C(C)(C)C)C3CCC(F)(F)CC3)CN2C(=O)[C@@H]2CN(C(C)(C)C)C[C@H]2c2ccc(F)cc2F)CC1` [Example 30, N-{(3S,5S)-1-{[(3S,4R)-1-tert-butyl-4-(2,4-difluorophenyl)pyrrolidin-3-yl]carbonyl}-5-[(4-methylpiperazin-1-yl)carbonyl]pyrrolidin-3-yl}-N-(4,4-difluorocyclohexyl)-2,2-dimethylpropanamide], the EC50 under setting [1] was in the range of 0.1 to 10 nM.

For `CN1CCN(C(=O)[C@@H]2C[C@H](N(C(=O)[C@@H]3CCCO3)C3CCC(F)(F)CC3)CN2C(=O)[C@@H]2CN(C(C)(C)C)C[C@H]2c2ccc(Cl)cc2)CC1` [Example 31, (2S)-N-{(3S,5S)-1-{[(3S,4R)-1-tert-butyl-4-(4-chlorophenyl)pyrrolidin-3-yl]carbonyl}-5-[(4-methylpiperazin-1-yl)carbonyl]pyrrolidin-3-yl}-N-(4,4-difluorocyclohexyl)tetrahydrofuran-2-carboxamide], under setting [1], the half-maximal effective concentration (EC50) lay within 10 to 100 nM.

On to `CN1CCN(C(=O)[C@H]2C[C@H](N(C(=O)[C@@H]3CCCO3)C3CCC(C)(C)CC3)CN2C(=O)[C@@H]2CN(C(C)(C)C)C[C@H]2c2ccc(F)cc2F)CC1` [Example 32, (2S)-N-{(3S,5R)-1-{[(3S,4R)-1-tert-butyl-4-(2,4-difluorophenyl)pyrrolidin-3-yl]carbonyl}-5-[(4-methylpiperazin-1-yl)carbonyl]pyrrolidin-3-yl}-N-(4,4-dimethylcyclohexyl)tetrahydrofuran-2-carboxamide], for which the 50% effective concentration (EC50) is 0.1 to 10 nM under setting [1] and 4 nM under setting [2].

Turning to `CN1CCN(C(=O)[C@H]2C[C@H](N(C(=O)C(C)(C)C)[C@H]3CC[C@@H](C)CC3)CN2C(=O)[C@@H]2CN(C(C)(C)C)C[C@H]2c2ccc(F)cc2F)CC1` [Example 33, N-{(3S,5R)-1-{[(3S,4R)-1-tert-butyl-4-(2,4-difluorophenyl)pyrrolidin-3-yl]carbonyl}-5-[(4-methylpiperazin-1-yl)carbonyl]pyrrolidin-3-yl}-2,2-dimethyl-N-(cis-4-methylcyclohexyl)propanamide], the EC50 under setting [1] is 10 to 100 nM.

Consider `CN1CCN(C(=O)[C@H]2C[C@H](N(C(=O)[C@@H]3CCCO3)C3CCC(C)(C)CC3)CN2C(=O)[C@@H]2CN(C(C)(C)C)C[C@H]2c2ccc(Cl)cc2)CC1` [Example 34, (2S)-N-{(3S,5R)-1-{[(3S,4R)-1-tert-butyl-4-(4-chlorophenyl)pyrrolidin-3-yl]carbonyl}-5-[(4-methylpiperazin-1-yl)carbonyl]pyrrolidin-3-yl}-N-(4,4-dimethylcyclohexyl)tetrahydrofuran-2-carboxamide], for which the EC50 under setting [1] was in the range of 0.1 to 10 nM.

With `CN1CCN(C(=O)[C@H]2C[C@H](N(C(=O)C(C)(C)CO)[C@H]3CC[C@@H](C)CC3)CN2C(=O)[C@@H]2CN(C(C)(C)C)C[C@H]2c2ccc(Cl)cc2)CC1` [Example 36, N-{(3S,5R)-1-{[(3S,4R)-1-tert-butyl-4-(4-chlorophenyl)pyrrolidin-3-yl]carbonyl}-5-[(4-methylpiperazin-1-yl)carbonyl]pyrrolidin-3-yl}-3-hydroxy-2,2-dimethyl-N-(cis-4-methylcyclohexyl)propanamide], the concentration for a half-maximal effect (EC50) under setting [1] lay in the range of 0.1 to 10 nM.

Turning to `CC(=O)N([C@H]1C[C@H](C(=O)N2CCN(C)CC2)N(C(=O)[C@@H]2CN(C(C)(C)C)C[C@H]2c2ccc(Cl)cc2)C1)[C@H]1CC[C@@H](C)CC1` [Example 37, N-{(3S,5R)-1-{[(3S,4R)-1-tert-butyl-4-(4-chlorophenyl)pyrrolidin-3-yl]carbonyl}-5-[(4-methylpiperazin-1-yl)carbonyl]pyrrolidin-3-yl}-N-(cis-4-methylcyclohexyl)acetamide], the EC50 under setting [1] was in the range of 0.1 to 10 nM.

Consider `CC(=O)N([C@H]1C[C@H](C(=O)N2CCN(C)CC2)N(C(=O)[C@@H]2CN(C(C)(C)C)C[C@H]2c2ccc(F)cc2F)C1)[C@H]1CC[C@@H](C)CC1` [Example 38, N-{(3S,5R)-1-{[(3S,4R)-1-tert-butyl-4-(2,4-difluorophenyl)pyrrolidin-3-yl]carbonyl}-5-[(4-methylpiperazin-1-yl)carbonyl]pyrrolidin-3-yl}-N-(cis-4-methylcyclohexyl)acetamide], for which the EC50 under setting [1] was in the range of 0.1 to 10 nM.

`CC(=O)N([C@H]1C[C@H](C(=O)N2CCN(C(C)C)CC2)N(C(=O)[C@@H]2CN(C(C)(C)C)C[C@H]2c2ccc(Cl)cc2)C1)[C@H]1CC[C@@H](C)CC1` [Example 39, N-{(3S,5R)-1-{[(3S,4R)-1-tert-butyl-4-(4-chlorophenyl)pyrrolidin-3-yl]carbonyl}-5-[(4-isopropylpiperazin-1-yl)carbonyl]pyrrolidin-3-yl}-N-(cis-4-methylcyclohexyl)acetamide]: under setting [1], the EC50 was in the range of 0.1 to 10 nM.

In the case of `CN1CCN(C(=O)[C@@H]2C[C@H](N(C(=O)[C@@H]3CCCO3)C3CCC(C)(C)CC3)CN2C(=O)[C@@H]2CN(C3CCOCC3)C[C@H]2c2ccc(Cl)cc2)CC1` [Example 41, (2S)-N-{(3S,5S)-1-{[(3S,4R)-4-(4-chlorophenyl)-1-(tetrahydro-2H-pyran-4-yl)pyrrolidin-3-yl]carbonyl}-5-[(4-methylpiperazin-1-yl)carbonyl]pyrrolidin-3-yl}-N-(4,4-dimethylcyclohexyl)tetrahydrofuran-2-carboxamide], the EC50 reads like this: under setting [1], 0.1 to 10 nM; under setting [2], 3 nM.

Regarding `CN1CCN(C(=O)[C@@H]2C[C@H](N(C(=O)[C@@H]3CCCO3)C3CCC(C)(C)CC3)CN2C(=O)[C@@H]2CN(C3CC3)C[C@H]2c2ccc(Cl)cc2)CC1` [Example 42, (2S)-N-{(3S,5S)-1-{[(3S,4R)-4-(4-chlorophenyl)-1-cyclopropylpyrrolidin-3-yl]carbonyl}-5-[(4-methylpiperazin-1-yl)carbonyl]pyrrolidin-3-yl}-N-(4,4-dimethylcyclohexyl)tetrahydrofuran-2-carboxamide], the EC50 under setting [1] lay in the range of 10 to 100 nM.

For `Cc1ccc(N2C[C@@H](C(=O)N3C[C@@H](N(C(=O)[C@@H]4CCCO4)C4CCC(C)(C)CC4)C[C@H]3C(=O)N3CCN(C)CC3)[C@H](c3ccc(Cl)cc3)C2)nn1` [Example 43, (2S)-N-{(3S,5S)-1-{[(3S,4R)-4-(4-chlorophenyl)-1-(6-methylpyridazin-3-yl)pyrrolidin-3-yl]carbonyl}-5-[(4-methylpiperazin-1-yl)carbonyl]pyrrolidin-3-yl}-N-(4,4-dimethylcyclohexyl)tetrahydrofuran-2-carboxamide], the 50% effective concentration (EC50) is 0.1 to 10 nM under setting [1] and 10 nM under setting [2].

With `CN1CCN(C(=O)[C@@H]2C[C@H](N(C(=O)[C@@H]3CCCO3)[C@H]3CC[C@@H](C)CC3)CN2C(=O)[C@@H]2CN(c3ccc(Cl)nn3)C[C@H]2c2ccc(F)cc2F)CC1` [Example 44, (2S)-N-{(3S,5S)-1-{[(3S,4R)-4-(2,4-difluorophenyl)-1-(6-chloropyridazin-3-yl)pyrrolidin-3-yl]carbonyl}-5-[(4-methylpiperazin-1-yl)carbonyl]pyrrolidin-3-yl}-N-(cis-4-methylcyclohexyl)tetrahydrofuran-2-carboxamide], the EC50 under setting [1] was in the range of 10 to 100 nM.

For `CN1CCN(C(=O)[C@@H]2C[C@H](N(C(=O)[C@@H]3CCCO3)C3CCC(C)(C)CC3)CN2C(=O)[C@@H]2CN(c3cccnn3)C[C@H]2c2ccc(F)cc2F)CC1` [Example 45], the EC50 under setting [1] was in the range of 0.1 to 10 nM and the EC50 under setting [2] is 8 nM.

In general, EC50 refers to the midpoint of the concentration-response curve.

For the origin of these results see patent US8183243B2, “Melanocortin receptor agonists” (LG Life Sciences Ltd., priority 2008, dated 2012).
